Experimental data as given in patent publication US20230021483A1, “[…] […] METHOD AND CLASSIFICATION OF PHARMACEUTICAL COMPONENTS BY USING TRANSCRIPTOMES” (National Institutes of Biomedical Innovation, Health and …, priority 2016, published 2023).

Key:
[1] = system: inguinal lymph nodes (LN); experiment: Whole organ transcriptome (GeneChip microarray) of draining inguinal lymph nodes 6 h after adjuvant administration: sDEGs, gene modules, hierarchical clustering; format: in vivo, C57BL/6 mice; on adjuvant group (cluster) in LN: key: G1 (interferon signaling); G2 (metabolism of lipids and lipoproteins); G3 (response to stress); G4 (response to wounding); G5 (phosphate-containing compound metabolic process); G6 (phagosome)
[2] = system: preferentially upregulated genes in LV, SP, LN; experiment: Z-score-based differential gene expression analysis (adjuvant group- or adjuvant-associated genes, 40 module mapping, TargetMine annotation); format: in vivo, C57BL/6 mice; conditions: ID
Procedure, shortened: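 Per-sample fold-change values converted to gene-wise z-scores within each organ's data set, then triplicate z-scores summed per adjuvant. Genes with summed score >3 taken as preferentially expressed; gene groups defined by combined per-adjuvant z-score thresholds (z>1 to z>3) specific to each organ.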

Substance: K3: B class CpG ODN (ATCGACTCTCGAGCGTTCTC), TLR9 ligand (chemistry not given here)
- genes in module 16 of the LNs (M16^LN), phagosome-related, macrophage-associated ([1]; LN, 6 h): upregulated
- module M15^LN (immune system process, T cell associated) ([1]; LN, 6 h): weakly induced
- adjuvant group (cluster) in LN ([1]; hierarchical clustering, lymph node): G5
- Number of gene probes with statistically significant changes (sDEGs), LN, Down ([1]; i.d. administration, lymph node, fold change <0.667, p<0.01, customized PA call=1, 6 h after adjuvant): 18
- Number of gene probes with statistically significant changes (sDEGs), LN, Up ([1]; i.d. administration, lymph node, fold change >1.5, p<0.01, customized PA call=1, 6 h after adjuvant): 53
- z sum, 1444615_x_at Runx1t1 ([2]; LN, Module#(LN) 1): −2.11
- z sum, 1420894_at Tgfbr1 ([2]; LN, Module#(LN) 3): −2.14
- z sum, 1460069_at Smc6 ([2]; LN, Module#(LN) 7): −3.53
- z sum, 1440371_at --- ([2]; LN, Module#(LN) 8): −1.24
- z sum, 1456346_at --- ([2]; LN, Module#(LN) 9): −2.13
- z sum, 1425105_at Rbp3 ([2]; LN, Module#(LN) 10): −2.11
- z sum, 1455796_x_at Olfm1 ([2]; LN, Module#(LN) 11): −1.44
- z sum, 1443302_at --- ([2]; LN, Module#(LN) 12): −2.78
- z sum, 1442518_at C030044O21Rik ([2]; LN, Module#(LN) 14): −1.58
- z sum, 1419486_at Foxc1 ([2]; LN, Module#(LN) 19): −0.76
- z sum, 1441344_at Erlin1 ([2]; LN, Module#(LN) 21): −2.63
- z sum, 1423611_at Alpl ([2]; LN, Module#(LN) 24): −1
- z sum, 1448179_at Usmg5 ([2]; LN, Module#(LN) 24): −2.02
- z sum, 1458457_at --- ([2]; LN, Module#(LN) 26): −0.33
- z sum, 1450377_at Thbs1 ([2]; LN, Module#(LN) 28): −2.87
- z sum, 1443853_x_at Sfmbt1 ([2]; LN, Module#(LN) 32): −2.59
- z sum, 1443392_at Trpv1 ([2]; LN, Module#(LN) 33): −1.04
- z sum, 1440475_at AW011738 ([2]; LN, Module#(LN) 36): −2.36
- z sum, 1416380_at Mov10 ([2]; LN, Module#(LN) 37): −2.43
- z sum, 1421008_at Rsad2 ([2]; LN, Module#(LN) 37): −1.42
- z sum, 1421009_at Rsad2 ([2]; LN, Module#(LN) 37): −0.76
- z sum, 1424339_at Oasl1 ([2]; LN, Module#(LN) 37): −0.5
- z sum, 1426013_s_at Plekha4 ([2]; LN, Module#(LN) 37): −1.53
- z sum, 1436058_at Rsad2 ([2]; LN, Module#(LN) 37): −0.71
- z sum, 1436472_at Slfn9 ([2]; LN, Module#(LN) 37): −2
- z sum, 1447241_at --- ([2]; LN, Module#(LN) 37): −2.6
- z sum, 1416039_x_at Cyr61 ([2]; LN, Module#(LN) 39): −1.58
- z sum, 1418191_at Usp18 ([2]; LN, Module#(LN) 40): −0.03
- z sum, 1418293_at Ifit2 ([2]; LN, Module#(LN) 40): −0.49
- z sum, 1418580_at Rtp4 ([2]; LN, Module#(LN) 40): −1
- z sum, 1419603_at Ifi204 ([2]; LN, Module#(LN) 40): −1.28
- z sum, 1421911_at Stat2 ([2]; LN, Module#(LN) 40): −0.43
- z sum, 1422006_at Eif2ak2 ([2]; LN, Module#(LN) 40): −1.95
- z sum, 1422141_s_at Csprs///Gm15433///Gm2666///Gm7609///LOC100041903///LOC100503923 ([2]; LN, Module#(LN) 40): −1.36
- z sum, 1423555_a_at Ifi44 ([2]; LN, Module#(LN) 40): −1.43
- z sum, 1424444_a_at 1600014C10Rik ([2]; LN, Module#(LN) 40): −0.85
- z sum, 1424607_a_at Gm4354 ([2]; LN, Module#(LN) 40): −0.89
- z sum, 1424609_a_at Cwc22///Gm4354///Xdh ([2]; LN, Module#(LN) 40): −2.76
- z sum, 1431095_a_at Herc6 ([2]; LN, Module#(LN) 40): −0.73
- z sum, 1432417_a_at Tspan2 ([2]; LN, Module#(LN) 40): −2.15
- z sum, 1439886_at --- ([2]; LN, Module#(LN) 40): −1.19
- z sum, 1450403_at Stat2 ([2]; LN, Module#(LN) 40): −1.07
- z sum, 1451777_at Ddx60 ([2]; LN, Module#(LN) 40): 0.163
- z sum, 1452349_x_at Ifi205///Mnda ([2]; LN, Module#(LN) 40): −1.48
- z sum, 1453196_a_at Oasl2 ([2]; LN, Module#(LN) 40): −1.27
- z sum, 1453299_a_at Pnp///Pnp2 ([2]; LN, Module#(LN) 40): −0.78
- z sum, 1453757_at Herc6 ([2]; LN, Module#(LN) 40): −0.2
- z sum, 1456164_at AW011738 ([2]; LN, Module#(LN) 40): −2.08
- z sum, 1457035_at Al607873 ([2]; LN, Module#(LN) 40): −0.26
- Adar 1425405_a_at (Group G1, Modules 20) ([2]; LV, sample x1): −0.3
- Adar 1434268_at (Group G1, Modules 20) ([2]; LV, sample x1): −0.6
